Inconclusive results and toxic doses are left out. Rule as the data show it: active = T/C of 150% or more; inactive = T/C below 125%.
Tested on: L1210 leukemia ip in BDF1 mice, survival T/C
Assay: NCI In Vivo Anticancer Drug Screen. Data for tumor model L1210 Leukemia (intraperitoneal) in B6D2F1 (BDF1) mice
Conditions: endpoint: mean survival time, higher = longer survival
How it was run: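 Tumor cells were implanted, animals were treated, and survival was followed. The result divides the treated measurement by the vehicle-control measurement.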

[1] = dose: 100.0 mg/kg/injection, schedule: Q04DX003 (ip), vehicle: saline with Tween-80
[2] = dose: 200.0 mg/kg/injection, schedule: Q04DX003 (ip), vehicle: saline with Tween-80
[3] = dose: 400.0 mg/kg/injection, schedule: Q04DX003 (ip), vehicle: saline with Tween-80
[4] = dose: 100.0 mg/kg/injection, schedule: Q01DX001 (ip), vehicle: saline
[5] = dose: 100.0 mg/kg/injection, schedule: Q04DX003 (ip), vehicle: Klucel (hydroxypropylcellulose) (HPC)
[6] = dose: 200.0 mg/kg/injection, schedule: Q04DX003 (ip), vehicle: Klucel (hydroxypropylcellulose) (HPC)
[7] = dose: 100.0 mg/kg/injection, schedule: Q01DX009 (ip), vehicle: saline with Tween-80
[8] = dose: 400.0 mg/kg/injection, schedule: Q01DX001 (ip), vehicle: saline
[9] = dose: 200.0 mg/kg/injection, schedule: Q01DX001 (ip), vehicle: saline
[10] = dose: 50.0 mg/kg/injection, schedule: Q01DX001 (ip), vehicle: saline

Measured: T/C

O=C(c1ccccc1)c1cccc(C(Br)Br)c1
inactive: [1] 96 % of control | [2] 95 % of control | [3] 95 % of control

NC(=S)N/N=C1\CC(c2ccccc2)Oc2ccccc21 (stereo unspecified)
inactive: [4] 88 % of control

O=C([O-])C[n+]1ccccc1
inactive: dose: 100.0 mg/kg/injection, schedule: Q01DX009 (ip), vehicle: saline 105 % of control | dose: 100.0 mg/kg/injection, schedule: Q04DX003 (ip), vehicle: saline 105 % of control | dose: 200.0 mg/kg/injection, schedule: Q01DX009 (ip), vehicle: saline 94 % of control | dose: 200.0 mg/kg/injection, schedule: Q04DX003 (ip), vehicle: saline 107 % of control | dose: 400.0 mg/kg/injection, schedule: Q01DX009 (ip), vehicle: saline 87 % of control | dose: 400.0 mg/kg/injection, schedule: Q04DX003 (ip), vehicle: saline 100 % of control

Cc1cc(=O)[nH]n1-c1ccc(N)cc1
inactive: [5] 105 % of control | [6] 94 % of control | dose: 400.0 mg/kg/injection, schedule: Q04DX003 (ip), vehicle: Klucel (hydroxypropylcellulose) (HPC) 103 % of control

COc1ccc(NCNc2ccc(OC)cc2)cc1
inactive: dose: 50.0 mg/kg/injection, schedule: Q01DX009 (ip), vehicle: Klucel (hydroxypropylcellulose) (HPC) 94 % of control | dose: 100.0 mg/kg/injection, schedule: Q01DX009 (ip), vehicle: Klucel (hydroxypropylcellulose) (HPC) 98 % of control | [5] 103 % of control | [6] 103 % of control

CC(C)c1ccc2cc(C(C)C)ccc2c1
inactive: [7] 107 % of control | dose: 200.0 mg/kg/injection, schedule: Q01DX009 (ip), vehicle: saline with Tween-80 92 % of control | dose: 400.0 mg/kg/injection, schedule: Q01DX009 (ip), vehicle: saline with Tween-80 92 % of control

O=c1oc2ccccc2c2c1C(c1ccccc1)C=C(c1ccccc1)O2 (stereo unspecified)
inactive: [1] 89 % of control | [2] 91 % of control | [3] 92 % of control

CC(=O)Nc1cccc([As](=O)(c2cccc(NC(C)=O)c2)c2cccc(NC(C)=O)c2)c1
inactive: dose: 55.0 mg/kg/injection, schedule: Q01DX Z (ip), vehicle: methylcellulose (MC) 98 % of control | dose: 125.0 mg/kg/injection, schedule: Q01DX Z (ip), vehicle: methylcellulose (MC) 98 % of control

CC/C=C(\C)C1(C(C)C)C(=O)NC(=O)NC1=O
inactive: dose: 75.0 mg/kg/injection, schedule: Q01DX001 (ip), vehicle: carboxymethylcellulose (CMC) 105 % of control

O=[N+]([O-])c1ccc(/C=N/Nc2c3ccccc3nc3ccccc23)cc1
inactive: [8] 94 % of control

COc1ccc2c3c1OC1C(=O)CCC4C(C2)N(C)CCC314 (stereo unspecified)
inactive: dose: 75.0 mg/kg/injection, schedule: Q01DX001 (ip), vehicle: saline 94 % of control

CCOC(=O)N1C2c3ccccc3C3C(C21)N3C(=O)OCC (stereo unspecified)
inactive: [4] 105 % of control | [9] 102 % of control | [8] 108 % of control

CCCN(CCC)[N+](=O)[O-]
inactive: dose: 100.0 mg/kg/injection, schedule: Q01DX001 (ip), vehicle: other 98 % of control | dose: 100.0 mg/kg/injection, schedule: Q04DX003 (ip), vehicle: other 104 % of control | dose: 200.0 mg/kg/injection, schedule: Q01DX001 (ip), vehicle: other 93 % of control | dose: 200.0 mg/kg/injection, schedule: Q04DX003 (ip), vehicle: other 101 % of control | dose: 400.0 mg/kg/injection, schedule: Q01DX001 (ip), vehicle: other 97 % of control | dose: 400.0 mg/kg/injection, schedule: Q04DX003 (ip), vehicle: other 98 % of control

COc1cc(C(=O)Nc2ccccc2)cc(OC)c1OC
inactive: dose: 100.0 mg/kg/injection, schedule: Q04DX002 (ip), vehicle: saline with Tween-80 102 % of control | dose: 200.0 mg/kg/injection, schedule: Q04DX002 (ip), vehicle: saline with Tween-80 98 % of control | dose: 400.0 mg/kg/injection, schedule: Q04DX002 (ip), vehicle: saline with Tween-80 95 % of control

C(CCCCCC1CCCC2CCCCC12)CCCCC1CCCC2CCCCC12 (stereo unspecified)
inactive: dose: 100.0 mg/kg/injection, schedule: Q01DX001 (ip), vehicle: saline with Tween-80 98 % of control | dose: 200.0 mg/kg/injection, schedule: Q01DX001 (ip), vehicle: saline with Tween-80 98 % of control | dose: 400.0 mg/kg/injection, schedule: Q01DX001 (ip), vehicle: saline with Tween-80 98 % of control

CC(Cc1ccccc1)Nc1ccccc1 (stereo unspecified)
inactive: [10] 93 % of control | [4] 100 % of control | [9] 93 % of control | [8] 93 % of control

NC(Cc1nccn1Cc1ccccc1)C(=O)O (stereo unspecified)
inactive: dose: 75.0 mg/kg/injection, schedule: Q04DX002 (ip), vehicle: saline with Tween-80 104 % of control | dose: 150.0 mg/kg/injection, schedule: Q04DX002 (ip), vehicle: saline with Tween-80 112 % of control | dose: 300.0 mg/kg/injection, schedule: Q04DX002 (ip), vehicle: saline with Tween-80 119 % of control

Cc1ccc2c(N=Nc3ccc(N(C)C)cc3)cccc2n1
inactive: dose: 25.0 mg/kg/injection, schedule: Q01DX009 (ip), vehicle: saline with Tween-80 93 % of control | dose: 50.0 mg/kg/injection, schedule: Q01DX009 (ip), vehicle: saline with Tween-80 93 % of control | [7] 98 % of control

O=C(O)c1ccc(NC(Nc2ccc(C(=O)O)cc2)C(=O)c2ccccc2)cc1
inactive: [4] 95 % of control | [9] 89 % of control | [8] 101 % of control

Cc1cccc(/C2=C/CCCCCC2)c1
inactive: dose: 37.5 mg/kg/injection, schedule: Q01DX009 (ip), vehicle: saline 100 % of control | dose: 75.0 mg/kg/injection, schedule: Q01DX001 (ip), vehicle: acetone 89 % of control | dose: 75.0 mg/kg/injection, schedule: Q01DX009 (ip), vehicle: saline 103 % of control | dose: 150.0 mg/kg/injection, schedule: Q01DX001 (ip), vehicle: acetone 88 % of control | dose: 150.0 mg/kg/injection, schedule: Q01DX009 (ip), vehicle: saline 115 % of control | dose: 225.0 mg/kg/injection, schedule: Q01DX009 (ip), vehicle: acetone 92 % of control | dose: 300.0 mg/kg/injection, schedule: Q01DX001 (ip), vehicle: acetone 93 % of control

Cc1cc(Cl)ccc1OCC(=O)NCC(C)O (stereo unspecified)
inactive: dose: 100.0 mg/kg/injection, schedule: Q04DX002 (ip), vehicle: Klucel (hydroxypropylcellulose) (HPC) 100 % of control | dose: 200.0 mg/kg/injection, schedule: Q04DX002 (ip), vehicle: Klucel (hydroxypropylcellulose) (HPC) 98 % of control | dose: 400.0 mg/kg/injection, schedule: Q04DX002 (ip), vehicle: Klucel (hydroxypropylcellulose) (HPC) 98 % of control

CC(c1ccccc1)C(C)(C#N)c1ccccc1 (stereo unspecified)
inactive: [10] 97 % of control | [4] 100 % of control | [9] 100 % of control | [8] 103 % of control

Nc1ccc2c(c1)Cc1c(F)ccc(F)c1-2
inactive: dose: 50.0 mg/kg/injection, schedule: Q01DX001 (ip), vehicle: carboxymethylcellulose (CMC) 107 % of control | dose: 100.0 mg/kg/injection, schedule: Q01DX001 (ip), vehicle: carboxymethylcellulose (CMC) 102 % of control | dose: 200.0 mg/kg/injection, schedule: Q01DX001 (ip), vehicle: carboxymethylcellulose (CMC) 109 % of control

CCOC(=O)C(CCC#N)C1=NC(C)(C)CC(C)O1 (stereo unspecified)
inactive: dose: 100.0 mg/kg/injection, schedule: Q01DX001 (ip), vehicle: Klucel (hydroxypropylcellulose) (HPC) 97 % of control | dose: 200.0 mg/kg/injection, schedule: Q01DX001 (ip), vehicle: Klucel (hydroxypropylcellulose) (HPC) 101 % of control | dose: 400.0 mg/kg/injection, schedule: Q01DX001 (ip), vehicle: Klucel (hydroxypropylcellulose) (HPC) 103 % of control

From PubChem BioAssay AID248 (DTP/NCI, 2004)
